# Literature values in patent US11873519B2, “Composition for preventing age-related metabolic and tissue degenerative changes” (priority 2017, dated 2024).
# Tested on: Ewing's sarcoma PDOX
substance,measurement,value
L-methionine α-deamino-γ-mercaptomethane lyase [rMETase],Serum and tumor MET levels versus controls,lower
same,Tumor growth compared to untreated control mice,effectively reduced tumor growth
